Results from patent publication US20250361230A1, “LATS Inhibitors and Uses Thereof” (The USA, as Represented by the Secretary, Dept. of Heath …, priority 2022, published 2025).

Legend:
Assay type in all cases: biochemical
LATS1 = molecular target: T1, LATS1 (Homo sapiens, UniProt O95835); experiment: RBC HotSpot kinase assay (33P-ATP, P81 filter-binding), LATS1; conditions: Table 28, biochemical kinase assay; read-out: LATS1 IC50
T1 sequence (O95835 1-1130): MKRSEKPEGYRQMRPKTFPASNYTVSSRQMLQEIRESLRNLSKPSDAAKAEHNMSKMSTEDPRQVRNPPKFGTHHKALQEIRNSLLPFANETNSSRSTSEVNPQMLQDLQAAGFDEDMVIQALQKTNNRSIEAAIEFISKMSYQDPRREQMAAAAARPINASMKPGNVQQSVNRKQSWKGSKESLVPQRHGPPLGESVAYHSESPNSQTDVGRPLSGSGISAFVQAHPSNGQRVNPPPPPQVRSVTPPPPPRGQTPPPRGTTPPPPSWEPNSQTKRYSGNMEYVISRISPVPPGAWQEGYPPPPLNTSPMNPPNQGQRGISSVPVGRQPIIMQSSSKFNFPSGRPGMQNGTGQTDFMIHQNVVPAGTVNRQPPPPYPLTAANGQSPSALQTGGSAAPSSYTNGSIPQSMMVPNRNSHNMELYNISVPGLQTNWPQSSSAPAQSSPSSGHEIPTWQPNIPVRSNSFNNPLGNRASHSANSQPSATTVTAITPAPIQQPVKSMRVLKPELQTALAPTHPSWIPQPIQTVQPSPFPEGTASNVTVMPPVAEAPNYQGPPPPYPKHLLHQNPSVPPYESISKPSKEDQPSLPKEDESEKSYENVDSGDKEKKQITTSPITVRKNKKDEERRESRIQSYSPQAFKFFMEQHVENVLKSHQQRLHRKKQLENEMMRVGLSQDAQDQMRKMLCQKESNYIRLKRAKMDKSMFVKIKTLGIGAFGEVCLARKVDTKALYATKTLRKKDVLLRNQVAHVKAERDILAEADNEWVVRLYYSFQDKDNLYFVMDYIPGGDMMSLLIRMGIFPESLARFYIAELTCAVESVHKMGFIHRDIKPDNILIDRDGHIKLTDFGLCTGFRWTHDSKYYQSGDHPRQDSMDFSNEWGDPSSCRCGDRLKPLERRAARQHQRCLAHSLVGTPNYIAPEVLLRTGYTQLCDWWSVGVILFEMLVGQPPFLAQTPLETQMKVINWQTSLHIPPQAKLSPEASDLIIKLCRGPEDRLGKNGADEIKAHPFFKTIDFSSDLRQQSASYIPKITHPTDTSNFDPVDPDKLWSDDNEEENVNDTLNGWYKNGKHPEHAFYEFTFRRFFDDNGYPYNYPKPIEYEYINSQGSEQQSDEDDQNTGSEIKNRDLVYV
Procedure, shortened: (§1)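 Radiometric 33P-ATP kinase reaction in 20 mM Hepes pH 7.5, 10 mM MgCl2, 1 mM EGTA, 0.01% Brij35, 0.02 mg/ml BSA, 0.1 mM Na3VO4, 2 mM DTT, 1% DMSO. Compound preincubated with kinase and substrate 20 min, then 2 h at room temperature; P81 filter-binding read-out. IC50 (nM) from 10-point singlet curves.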

LATS2 = molecular target: T2, LATS2 (Homo sapiens, UniProt Q9NRM7); experiment: RBC HotSpot kinase assay (33P-ATP, P81 filter-binding), LATS2; conditions: Table 28, biochemical kinase assay; read-out: LATS2 IC50
T2 sequence (Q9NRM7 1-1088): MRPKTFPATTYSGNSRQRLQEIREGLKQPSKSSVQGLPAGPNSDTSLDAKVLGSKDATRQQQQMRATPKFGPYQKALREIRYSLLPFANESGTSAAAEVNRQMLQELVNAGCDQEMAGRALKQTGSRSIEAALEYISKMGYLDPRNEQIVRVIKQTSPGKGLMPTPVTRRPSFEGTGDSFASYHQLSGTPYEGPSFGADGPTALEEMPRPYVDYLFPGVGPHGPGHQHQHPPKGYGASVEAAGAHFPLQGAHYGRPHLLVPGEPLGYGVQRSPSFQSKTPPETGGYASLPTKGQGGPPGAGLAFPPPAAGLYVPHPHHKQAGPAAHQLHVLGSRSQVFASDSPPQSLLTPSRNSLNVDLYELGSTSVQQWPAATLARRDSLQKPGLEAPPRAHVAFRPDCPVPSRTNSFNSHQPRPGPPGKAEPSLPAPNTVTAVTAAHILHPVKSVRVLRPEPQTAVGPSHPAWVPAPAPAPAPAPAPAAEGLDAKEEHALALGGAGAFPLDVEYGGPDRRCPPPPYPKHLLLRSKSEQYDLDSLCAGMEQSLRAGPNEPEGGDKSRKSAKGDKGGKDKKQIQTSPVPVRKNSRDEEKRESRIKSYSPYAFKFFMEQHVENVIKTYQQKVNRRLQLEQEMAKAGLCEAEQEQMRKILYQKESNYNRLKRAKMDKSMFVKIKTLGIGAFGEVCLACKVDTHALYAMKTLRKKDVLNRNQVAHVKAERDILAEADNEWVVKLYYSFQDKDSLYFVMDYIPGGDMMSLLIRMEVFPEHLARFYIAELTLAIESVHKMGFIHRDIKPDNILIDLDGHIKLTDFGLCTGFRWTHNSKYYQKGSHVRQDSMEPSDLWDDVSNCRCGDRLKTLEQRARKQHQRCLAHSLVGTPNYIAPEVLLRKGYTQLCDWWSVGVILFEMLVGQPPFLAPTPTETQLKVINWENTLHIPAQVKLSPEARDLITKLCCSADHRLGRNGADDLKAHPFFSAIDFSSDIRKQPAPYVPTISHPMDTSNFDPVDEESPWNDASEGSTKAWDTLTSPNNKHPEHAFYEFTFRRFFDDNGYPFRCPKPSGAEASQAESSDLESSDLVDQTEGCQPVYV
Procedure, shortened: as §1

AKT = AKT (Homo sapiens, UniProt P31749); experiment: RBC HotSpot kinase assay (33P-ATP, P81 filter-binding), AKT; conditions: Table 28, biochemical kinase assay; read-out: AKT IC50
Procedure, shortened: as §1

Sequence of AKT (P31749 whole entry): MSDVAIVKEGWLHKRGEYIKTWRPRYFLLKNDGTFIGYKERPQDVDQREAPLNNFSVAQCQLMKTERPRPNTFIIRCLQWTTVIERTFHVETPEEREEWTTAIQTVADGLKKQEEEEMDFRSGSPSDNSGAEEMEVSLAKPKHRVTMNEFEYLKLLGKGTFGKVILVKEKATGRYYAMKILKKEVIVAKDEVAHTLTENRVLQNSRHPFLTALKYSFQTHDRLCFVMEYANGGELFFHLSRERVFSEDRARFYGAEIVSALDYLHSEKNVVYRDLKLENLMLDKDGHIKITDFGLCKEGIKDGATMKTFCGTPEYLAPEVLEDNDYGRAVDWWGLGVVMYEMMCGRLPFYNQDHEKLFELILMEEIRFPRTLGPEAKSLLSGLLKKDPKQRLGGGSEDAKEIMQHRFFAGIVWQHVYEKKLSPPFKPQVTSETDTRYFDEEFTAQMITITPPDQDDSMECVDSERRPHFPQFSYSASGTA

Row | IC50 (LATS1) [nM] | IC50 (LATS2) [nM] | IC50 (AKT) [nM] | Compound
1 | 2080 | 4250 | > 10000 | Cc1cc(-c2ccnc3[nH]cc(F)c23)ncc1[C@@]1(O)[C@H](C)CN(C2CCS(=O)(=O)CC2)C[C@@H]1C [Compound 51, 4-((3R,4s,5S)-4-(6-(3-fluoro-1H-pyrrolo[2,3-b]pyridin-4-yl)-4-methylpyridin-3-yl)-4-hydroxy-3,5-dimethylpiperidin-1-yl)tetrahydro-2H-thiopyran 1,1-dioxide]
2 | 9 | 12.1 | 62.8 | Cc1cc(-c2ccnc3[nH]cc(F)c23)ccc1[C@@]1(O)[C@H](C)CN(C2CCS(=O)(=O)CC2)C[C@@H]1C [Compound 55, 4-((3R,4s, 5S)-4-(4-(3-fluoro-1H-pyrrolo[2,3-b]pyridin-4-yl)-2-methylphenyl)-4-hydroxy-3,5S-dimethylpiperidin-1-yl)tetrahydro-2H-thiopyran 1,1-dioxide]
3 | 22 | 11.1 | 621 | C[C@@H]1CN(C(=O)CN)C[C@H](C)[C@@]1(O)c1c(F)cc(-c2ccnc3[nH]cc(F)c23)cc1F [Compound 58]
4 | 8.3 | 6.7 | 49.2 | Cc1cc(-c2ccnc3[nH]cc(F)c23)ccc1[C@@]1(O)[C@H](C)CN(C(=O)CN)C[C@@H]1C [Compound 60, 2-amino-1-((3R,4s,5S)-4-(4-(3-fluoro-1H-pyrrolo[2,3-b]pyridin-4-yl)-2-methylphenyl)-4-hydroxy-3,5-dimethylpiperidin-1-yl)ethan-1-one]
5 | 5.9 | 9 | 698 | Cc1cc(-c2ccnc3[nH]cc(F)c23)cc(F)c1C1(O)CC2(CN(C3COC3)C2)C1 [Compound 139, 6-(2-fluoro-4-(3-fluoro-1H-pyrrolo[2,3-b]pyridin-4-yl)-6-methylphenyl)-2-(oxetan-3-yl)-2-azaspiro[3.3]heptan-6-ol]
6 | 9.6 | 19 | 715 | Fc1c[nH]c2nccc(-c3ccc(C4CCNCC4)c(Cl)c3)c12 [Compound 172, 4-(3-chloro-4-(piperidin-4-yl)phenyl)-3-fluoro-1H-pyrrolo[2,3-b]pyridine]
7 | 7.2 | 8 | 330 | Clc1c[nH]c2nccc(-c3ccc(C4CCNCC4)cc3)c12 [Compound 173, 3-chloro-4-(4-(piperidin-4-yl)phenyl)-1H-pyrrolo[2,3-b]pyridine]
8 | 11 | 14 | 684 | Cc1cc(-c2ccnc3[nH]ccc23)ccc1C1CCNCC1 [Compound 177, 4-(3-methyl-4-(piperidin-4-yl)phenyl)-1H-pyrrolo[2,3-b]pyridine]
9 | 25 | 50 | 940 | c1cc(-c2ccc(C3CC4CCC(C3)N4)cc2)c2cc[nH]c2n1 (stereo not drawn) [Compound 184, 4-(4-(8-azabicyclo[3.2.1]octan-3-yl)phenyl)-1H-pyrrolo[2,3-b]pyridine]

The remaining lines, values behind:

Row | Compound | IC50 (LATS1) [nM] | IC50 (LATS2) [nM] | IC50 (AKT) [nM]
10 | Cc1cc(-c2ccnc3[nH]cc(F)c23)ccc1[C@@]1(O)[C@H](C)CN(C2CCC2)C[C@@H]1C [Compound 54, (3R,4s,5S)-1-cyclobutyl-4-(4-(3-fluoro-1H-pyrrolo[2,3-b]pyridin-4-yl)-2-methylphenyl)-3,5-dimethylpiperidin-4-ol] | 2.5 | 2.3 | 51
11 | Cc1cc(-c2ccnc3[nH]cc(F)c23)cc(F)c1[C@@]1(O)[C@H](C)CN(C2CCS(=O)(=O)CC2)C[C@@H]1C [Compound 57, 4-((3R,4s,5S)-4-(2-fluoro-4-(3-fluoro-1H-pyrrolo[2,3-b]pyridin-4-yl)-6-methylphenyl)-4-hydroxy-3,5-dimethylpiperidin-1-yl)tetrahydro-2H-thiopyran 1,1-dioxide] | 4.4 | 5.3 | 374
12 | Cc1cc(-c2ccnc3[nH]cc(F)c23)cc(F)c1[C@@]1(O)[C@H](C)CN(C(=O)CN)C[C@@H]1C [Compound 61, 2-amino-1-((3R,4s,5S)-4-(2-fluoro-4-(3-fluoro-1H-pyrrolo[2,3-b]pyridin-4-yl)-6-methylphenyl)-4-hydroxy-3,5-dimethylpiperidin-1-yl)ethan-1-one] | 3.2 | 3.2 | 197
13 | C[C@@H]1CN(CC(N)=O)C[C@H](C)[C@@]1(O)c1c(F)cc(-c2ccnc3[nH]cc(F)c23)cc1F [Compound 88, 2-((3R,4s,5S)-4-(2,6-difluoro-4-(3-fluoro-1H-pyrrolo[2,3-b]pyridin-4-yl)phenyl)-4-hydroxy-3,5-dimethylpiperidin-1-yl)acetamide] | 2.5 | 2.9 | 323
14 | C[C@@H]1CN(C2CCNCC2)C[C@H](C)[C@@]1(O)c1c(F)cc(-c2ccnc3[nH]cc(F)c23)cc1F [Compound 90, (3R,4s,5S)-4-(2,6-difluoro-4-(3-fluoro-1H-pyrrolo[2,3-b]pyridin-4-yl)phenyl)-3,5-dimethyl-[1,4′-bipiperidin]-4-ol] | 4.9 | 4.6 | 100
15 | OC1(c2ccc(-c3ccnc4[nH]cc(F)c34)cc2)CCNCC1 [Compound 110, 4-(4-(3-fluoro-1H-pyrrolo[2,3-b]pyridin-4-yl)phenyl)piperidin-4-ol] | 5.7 | 2.9 | 490
16 | OC1(c2ccc(-c3ccnc4[nH]ccc34)cc2)CCNCC1 [Compound 111, 4-(4-(1H-pyrrolo[2,3-b]pyridin-4-yl)phenyl)piperidin-4-ol] | 22 | 22 | 1100
17 | O=C([C@H]1CCCN1)N1CCC(O)(c2ccc(-c3ccnc4[nH]cc(F)c34)cc2)CC1 [Compound 142] | 7.8 | 4.4 | 1350
18 | Fc1c[nH]c2nccc(-c3ccc(C4CCNCC4)cc3)c12 [Compound 169, 3-fluoro-4-(4-(piperidin-4-yl)phenyl)-1H-pyrrolo[2,3-b]pyridine] | 15 | 14 | 1180
19 | CC1CC(c2ccc(-c3ccnc4[nH]ccc34)cc2)CC(C)N1 (stereo not drawn) [Compound 187, 4-(4-(2,6-dimethylpiperidin-4-yl)phenyl)-1H-pyrrolo[2,3-b]pyridine] | 66.1 | 62.6 | 1440
20 | CC1(c2ccc(-c3ccnc4[nH]ccc34)cc2)CCNCC1 [Compound 201, 4-(4-(4-methylpiperidin-4-yl)phenyl)-1H-pyrrolo[2,3-b]pyridine] | 59 | 43 | 200
